# Measured values taken from ChEMBL document CHEMBL1157928, “Discovery and structural optimization of pyrazole derivatives as novel inhibitors of Cdc25B” (Bioorg Med Chem Lett, 2010).
# pIC50: −log10 of the molar value.
# Experiments:
# [1] = biological target: T1, M-phase inducer phosphatase 2 (Homo sapiens, UniProt P30305); experiment: Inhibition of CDC25B; settings: for pIC50: read-out: IC50
# T1 sequence (P30305 whole entry): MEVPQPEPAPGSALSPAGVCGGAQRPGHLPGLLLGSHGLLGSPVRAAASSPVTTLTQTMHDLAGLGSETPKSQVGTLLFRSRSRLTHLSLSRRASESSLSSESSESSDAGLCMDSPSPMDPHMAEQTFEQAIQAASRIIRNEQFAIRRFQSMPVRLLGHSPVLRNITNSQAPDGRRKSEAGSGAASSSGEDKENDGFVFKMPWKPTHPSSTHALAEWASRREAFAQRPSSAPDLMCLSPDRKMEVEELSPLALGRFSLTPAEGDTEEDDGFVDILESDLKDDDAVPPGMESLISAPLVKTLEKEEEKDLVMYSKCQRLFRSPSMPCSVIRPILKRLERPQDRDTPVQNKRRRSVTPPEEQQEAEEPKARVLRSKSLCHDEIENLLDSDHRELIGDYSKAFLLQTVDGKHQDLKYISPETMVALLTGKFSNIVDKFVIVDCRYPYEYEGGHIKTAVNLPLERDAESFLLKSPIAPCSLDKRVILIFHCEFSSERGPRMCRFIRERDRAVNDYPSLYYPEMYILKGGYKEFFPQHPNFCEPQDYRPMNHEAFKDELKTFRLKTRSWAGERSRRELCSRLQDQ
# [2] = biological target: T2, Tyrosine-protein phosphatase non-receptor type 11 (Homo sapiens, UniProt Q06124); experiment: Inhibition of SHP2; settings: for pIC50: read-out: IC50
# T2 sequence (Q06124 whole entry): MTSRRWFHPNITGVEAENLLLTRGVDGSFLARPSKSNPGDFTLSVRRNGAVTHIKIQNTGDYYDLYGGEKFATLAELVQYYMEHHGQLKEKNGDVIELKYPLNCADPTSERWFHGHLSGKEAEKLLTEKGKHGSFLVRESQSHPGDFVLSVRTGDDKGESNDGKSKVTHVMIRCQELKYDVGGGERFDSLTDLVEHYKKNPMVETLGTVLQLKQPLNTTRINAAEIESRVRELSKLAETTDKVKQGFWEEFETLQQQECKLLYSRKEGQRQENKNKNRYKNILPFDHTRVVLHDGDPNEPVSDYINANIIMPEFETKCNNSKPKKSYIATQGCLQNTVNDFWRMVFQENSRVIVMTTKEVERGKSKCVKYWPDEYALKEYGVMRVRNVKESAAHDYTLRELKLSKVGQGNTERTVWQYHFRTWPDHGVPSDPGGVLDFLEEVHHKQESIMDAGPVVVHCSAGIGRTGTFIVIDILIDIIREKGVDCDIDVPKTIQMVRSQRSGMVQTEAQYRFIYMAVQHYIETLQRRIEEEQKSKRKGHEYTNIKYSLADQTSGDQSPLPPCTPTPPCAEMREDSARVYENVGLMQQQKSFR
# [3] = biological target: T3, Tyrosine-protein phosphatase non-receptor type 1 (Homo sapiens, UniProt P18031); experiment: Inhibition of PTP1B; settings: for pIC50: read-out: IC50
# T3 sequence (P18031 whole entry): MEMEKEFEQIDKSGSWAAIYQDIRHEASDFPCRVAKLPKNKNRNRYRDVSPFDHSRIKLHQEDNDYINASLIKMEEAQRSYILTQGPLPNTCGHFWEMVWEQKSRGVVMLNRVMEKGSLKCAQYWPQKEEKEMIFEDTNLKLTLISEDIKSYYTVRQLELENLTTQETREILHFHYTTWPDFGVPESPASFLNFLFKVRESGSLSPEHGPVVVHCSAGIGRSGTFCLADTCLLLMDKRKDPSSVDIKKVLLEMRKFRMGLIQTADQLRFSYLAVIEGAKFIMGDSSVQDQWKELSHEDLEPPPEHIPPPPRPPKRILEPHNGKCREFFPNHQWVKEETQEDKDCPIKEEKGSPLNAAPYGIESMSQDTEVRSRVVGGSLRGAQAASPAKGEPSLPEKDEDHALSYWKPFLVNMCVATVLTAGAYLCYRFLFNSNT
# [4] = biological target: T4, Tyrosine-protein phosphatase non-receptor type 2 (Homo sapiens, UniProt P17706); experiment: Inhibition of TCPTP; settings: for pIC50: read-out: IC50
# T4 sequence (P17706 whole entry): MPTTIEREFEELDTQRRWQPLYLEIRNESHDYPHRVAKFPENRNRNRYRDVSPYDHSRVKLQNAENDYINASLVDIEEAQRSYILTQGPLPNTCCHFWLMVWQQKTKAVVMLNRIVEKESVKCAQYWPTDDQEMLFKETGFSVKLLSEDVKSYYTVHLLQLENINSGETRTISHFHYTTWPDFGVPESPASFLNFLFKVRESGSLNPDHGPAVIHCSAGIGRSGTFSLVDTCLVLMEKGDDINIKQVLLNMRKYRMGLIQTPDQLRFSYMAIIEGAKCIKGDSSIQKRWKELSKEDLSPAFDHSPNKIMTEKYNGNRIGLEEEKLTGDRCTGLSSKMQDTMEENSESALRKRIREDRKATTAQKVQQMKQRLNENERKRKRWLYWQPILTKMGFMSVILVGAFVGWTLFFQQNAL
# [5] = biological target: Receptor-type tyrosine-protein phosphatase F (Homo sapiens, UniProt P10586); experiment: Inhibition of PTP-LAR
# Receptor-type tyrosine-protein phosphatase F, sequence (P10586 whole entry): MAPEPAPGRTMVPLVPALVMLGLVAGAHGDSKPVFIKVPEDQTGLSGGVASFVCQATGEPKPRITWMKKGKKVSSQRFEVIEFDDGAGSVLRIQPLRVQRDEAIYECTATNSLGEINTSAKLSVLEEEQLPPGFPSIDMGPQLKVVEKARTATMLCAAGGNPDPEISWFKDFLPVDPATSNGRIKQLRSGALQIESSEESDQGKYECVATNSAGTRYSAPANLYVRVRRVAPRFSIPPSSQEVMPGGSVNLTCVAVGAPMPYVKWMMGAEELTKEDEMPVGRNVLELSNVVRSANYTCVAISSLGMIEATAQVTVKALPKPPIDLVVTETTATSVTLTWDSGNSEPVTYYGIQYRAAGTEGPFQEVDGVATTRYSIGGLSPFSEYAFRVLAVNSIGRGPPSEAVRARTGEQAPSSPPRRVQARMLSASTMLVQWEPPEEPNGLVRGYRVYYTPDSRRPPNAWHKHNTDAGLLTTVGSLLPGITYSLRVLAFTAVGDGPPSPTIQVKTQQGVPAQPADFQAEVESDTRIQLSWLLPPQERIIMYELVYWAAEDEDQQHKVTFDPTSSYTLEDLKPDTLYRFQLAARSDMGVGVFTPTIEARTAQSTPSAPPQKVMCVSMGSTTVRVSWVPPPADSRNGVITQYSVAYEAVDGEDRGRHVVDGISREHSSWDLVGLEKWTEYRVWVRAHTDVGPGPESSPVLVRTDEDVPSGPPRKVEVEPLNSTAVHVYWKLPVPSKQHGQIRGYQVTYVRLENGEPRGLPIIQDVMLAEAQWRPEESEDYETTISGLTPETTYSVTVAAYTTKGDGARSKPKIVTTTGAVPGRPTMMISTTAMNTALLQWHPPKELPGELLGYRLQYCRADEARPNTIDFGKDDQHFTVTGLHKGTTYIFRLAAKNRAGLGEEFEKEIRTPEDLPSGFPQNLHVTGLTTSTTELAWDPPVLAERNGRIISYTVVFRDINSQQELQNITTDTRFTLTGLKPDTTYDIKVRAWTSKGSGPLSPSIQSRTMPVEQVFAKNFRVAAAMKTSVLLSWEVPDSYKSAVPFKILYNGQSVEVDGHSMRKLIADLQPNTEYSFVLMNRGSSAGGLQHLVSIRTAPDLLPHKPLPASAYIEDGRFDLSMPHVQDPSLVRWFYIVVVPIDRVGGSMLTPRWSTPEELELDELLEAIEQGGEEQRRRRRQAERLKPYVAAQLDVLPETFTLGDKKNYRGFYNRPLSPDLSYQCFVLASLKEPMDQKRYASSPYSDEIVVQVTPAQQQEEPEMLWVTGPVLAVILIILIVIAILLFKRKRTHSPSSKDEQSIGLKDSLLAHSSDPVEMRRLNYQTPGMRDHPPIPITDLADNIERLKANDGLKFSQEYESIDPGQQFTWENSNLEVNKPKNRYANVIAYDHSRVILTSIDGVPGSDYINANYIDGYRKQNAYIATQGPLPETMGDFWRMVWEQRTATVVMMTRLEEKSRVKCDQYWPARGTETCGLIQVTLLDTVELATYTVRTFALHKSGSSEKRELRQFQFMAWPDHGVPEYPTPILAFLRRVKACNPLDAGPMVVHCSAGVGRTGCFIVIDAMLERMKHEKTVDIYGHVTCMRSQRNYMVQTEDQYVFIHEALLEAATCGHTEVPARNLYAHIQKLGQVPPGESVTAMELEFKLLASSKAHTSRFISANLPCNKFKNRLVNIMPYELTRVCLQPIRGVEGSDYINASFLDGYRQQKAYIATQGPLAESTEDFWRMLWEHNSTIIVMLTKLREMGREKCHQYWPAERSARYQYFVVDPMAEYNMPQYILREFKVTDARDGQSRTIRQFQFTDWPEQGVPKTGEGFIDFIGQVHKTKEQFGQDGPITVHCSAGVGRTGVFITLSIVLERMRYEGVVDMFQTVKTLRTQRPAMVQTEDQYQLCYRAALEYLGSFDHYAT
# [6] = biological target: Tyrosine-protein phosphatase non-receptor type 6 (Homo sapiens, UniProt P29350); experiment: Inhibition of SHP1; settings: for pIC50: read-out: IC50
# Tyrosine-protein phosphatase non-receptor type 6, sequence (P29350 whole entry): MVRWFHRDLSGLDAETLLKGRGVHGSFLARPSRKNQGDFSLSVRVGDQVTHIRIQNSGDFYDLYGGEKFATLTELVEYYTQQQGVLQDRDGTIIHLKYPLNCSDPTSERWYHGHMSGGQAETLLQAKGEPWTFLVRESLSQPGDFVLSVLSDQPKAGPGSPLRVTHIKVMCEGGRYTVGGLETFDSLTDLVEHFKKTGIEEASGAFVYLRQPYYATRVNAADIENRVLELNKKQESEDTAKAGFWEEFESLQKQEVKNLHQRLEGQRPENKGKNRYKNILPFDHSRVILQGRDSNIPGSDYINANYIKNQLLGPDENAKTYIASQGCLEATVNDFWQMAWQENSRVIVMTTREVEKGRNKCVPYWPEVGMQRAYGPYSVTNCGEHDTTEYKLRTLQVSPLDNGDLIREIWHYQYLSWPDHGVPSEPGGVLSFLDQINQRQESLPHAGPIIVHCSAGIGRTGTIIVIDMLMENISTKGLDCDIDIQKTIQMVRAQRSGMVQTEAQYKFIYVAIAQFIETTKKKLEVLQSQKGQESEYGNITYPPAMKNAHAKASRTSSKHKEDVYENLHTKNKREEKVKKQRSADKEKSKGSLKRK
compound,measurement,setting,value
CCOC(=O)c1n[nH]c2c1C(=O)N(c1cccc(Cl)c1)C2=O,IC50,[1],Not Active
CCCCCCCCCCCCCCCCCC(=O)c1n[nH]c2c1C(=O)N(c1ccccc1C(=O)OC)C2=O,pIC50,[1],6.39
CCCCCCCCCCCCCCCCCC(=O)c1n[nH]c2c1C(=O)N(c1ccc(OC)cc1)C2=O,pIC50,[1],6.27
CCCCCCCCCCCCCCCCCC(=O)c1n[nH]c2c1C(=O)N(c1ccc(C)cc1)C2=O,pIC50,[1],5.36
CCCCCCCCCCCCCCCCCC(=O)c1n[nH]c2c1C(=O)N(c1ccsc1C(=O)OC)C2=O,pIC50,[1],6.47
CCCCCCCCCCCCCC(=O)c1n[nH]c2c1C(=O)N(c1ccc([N+](=O)[O-])cc1)C2=O,pIC50,[1],6.30
CCCCCCCCCCCCCCCCCC(=O)c1n[nH]c2c1C(=O)N(c1ccccc1F)C2=O,pIC50,[1],6.35
CCOC(=O)c1n[nH]c2c1C(=O)N(c1ccc(Cl)cc1)C2=O,pIC50,[1],4.43
CCCCCCCCCCCCCCCCCC(=O)c1n[nH]c2c1C(=O)N(Cc1ccccc1)C2=O,pIC50,[1],6.14
CCOC(=O)c1n[nH]c2c1C(=O)N(c1cccc(Br)c1)C2=O,IC50,[1],Not Active
CCCCCCCCCCCCCCCCCC(=O)c1n[nH]c2c1C(=O)N(c1ccccc1)C2=O,pIC50,[2],5.02
same,pIC50,[1],6.64
same,pIC50,[3],5.81
same,pIC50,[4],5.48
same,IC50,[5],Not Active
same,IC50,[6],Not Active
CCOC(=O)c1n[nH]c2c1C(=O)N(c1ccccc1OC)C2=O,IC50,[1],Not Active
CCCCCCCCCCCCCCCCCC(=O)c1nn(C)c2c1C(=O)N(c1ccccc1)C2=O,pIC50,[1],4.52
CCCCCCCCCCCCCCCCCC(=O)c1n[nH]c2c1C(=O)N(c1ccc(Br)cc1)C2=O,pIC50,[1],6.02
CCCCCCCCCCCCCCCCCC(=O)c1n[nH]c2c1C(=O)N(c1ccccc1C)C2=O,pIC50,[1],5.67
CCCCCCCCCCCCCCCCCC(=O)c1n[nH]c2c1C(=O)N(c1cccc([N+](=O)[O-])c1)C2=O,pIC50,[1],5.95
CCCCCCCCCCCCCCCCCC(=O)c1n[nH]c2c1C(=O)N(c1cccc3ccccc13)C2=O,pIC50,[1],6.51
CCOC(=O)c1n[nH]c2c1C(=O)N(c1cccc(F)c1)C2=O,IC50,[1],Not Active
CCOC(=O)c1n[nH]c2c1C(=O)N(c1cccc([N+](=O)[O-])c1)C2=O,IC50,[1],Not Active
CCCCCCCCCCCCCCCCCC(=O)c1n[nH]c2c1C(=O)N(Cc1ccc(F)cc1)C2=O,pIC50,[1],5.68
CCCCCCCCCCCCCCCCCC(=O)c1n[nH]c2c1C(=O)N(c1ccccc1Br)C2=O,pIC50,[1],6.60
CCCCCCCCCCCCCCCCCC(=O)c1cc(C(=O)Nc2ccccc2C(=O)OC)[nH]n1,IC50,[2],Not Active
same,pIC50,[1],5.29
same,pIC50,[3],5.13
same,pIC50,[4],4.73
same,IC50,[5],Not Active
same,IC50,[6],Not Active
CCCCCCCCCCCCCCCCCC(=O)c1n[nH]c2c1C(=O)N(c1cccc(C)c1)C2=O,pIC50,[1],5.59
CCCCCCCCCCCCCCCCCC(=O)c1n[nH]c2c1C(=O)N(c1ccccc1C(F)(F)F)C2=O,pIC50,[1],6.49
CCCCCCCCCCCCCCCCCC(=O)c1n[nH]c2c1C(=O)N(c1cccc(F)c1)C2=O,pIC50,[1],5.83
CCOC(=O)c1n[nH]c2c1C(=O)N(c1ccccc1Cl)C2=O,IC50,[1],Not Active
CCOC(=O)c1n[nH]c2c1C(=O)N(c1ccc(OC)cc1)C2=O,IC50,[1],Not Active
CCCCCCCCCC(=O)c1n[nH]c2c1C(=O)N(c1ccc([N+](=O)[O-])cc1)C2=O,pIC50,[1],5.86
CCOC(=O)c1n[nH]c2c1C(=O)N(c1ccc([N+](=O)[O-])cc1)C2=O,IC50,[2],Not Active
same,pIC50,[1],4.50
same,IC50,[3],Not Active
same,IC50,[4],Not Active
same,IC50,[5],Not Active
same,IC50,[6],Not Active
CCOC(=O)c1n[nH]c2c1C(=O)N(c1ccccc1F)C2=O,IC50,[1],Not Active
CCCCCCCCCCCCCCCCCC(=O)c1n[nH]c2c1C(=O)N(c1ccc([N+](=O)[O-])cc1)C2=O,pIC50,[1],6.40
CCCCCCCCCCCCCCCCCC(=O)c1n[nH]c2c1C(=O)N(c1ccc(F)cc1)C2=O,pIC50,[1],6.27
CCOC(=O)c1n[nH]c2c1C(=O)N(c1ccccc1C(=O)OC)C2=O,IC50,[1],Not Active
O=C(c1ccccc1)c1n[nH]c2c1C(=O)N(c1ccc([N+](=O)[O-])cc1)C2=O,IC50,[1],Not Active
CCCCCCCCCCCCCCCCCC(=O)c1cc(C(=O)Nc2ccsc2C(=O)OC)[nH]n1,IC50,[2],Not Active
same,pIC50,[1],5.47
same,pIC50,[3],5.15
same,pIC50,[4],4.73
same,IC50,[5],Not Active
same,IC50,[6],Not Active
CCCCCCCCCCCCCCCCCC(=O)c1n[nH]c2c1C(=O)N(C1CCCCC1)C2=O,pIC50,[1],5.53
CCCCCCCCCCCCCCCCCC(=O)c1n[nH]c2c1C(=O)N(c1cccc(Br)c1)C2=O,pIC50,[1],6.00
CCOC(=O)c1n[nH]c2c1C(=O)N(c1ccc(F)cc1)C2=O,IC50,[1],Not Active
CCOC(=O)c1n[nH]c2c1C(=O)N(c1ccccc1Br)C2=O,IC50,[1],Not Active
CCCCCCCCCCCCCCCCCC(=O)c1n[nH]c2c1C(=O)N(c1ccc(F)c(Cl)c1)C2=O,pIC50,[1],5.94
CCCCCCCCCCCCCCCCCC(=O)c1n[nH]c2c1C(=O)N(c1ccc(C(=O)OC)cc1)C2=O,pIC50,[1],6.31
CCCCCCCCCCCCCCCCCC(=O)c1cc(C(=O)Nc2ccccc2C(=O)O)[nH]n1,pIC50,[2],4.82
same,pIC50,[1],6.80
same,pIC50,[3],6.46
same,pIC50,[4],5.89
same,IC50,[5],Not Active
same,pIC50,[6],4.97
CCCCCCCCCCCCCCCCCC(=O)c1n[nH]c2c1C(=O)N(c1cccc(OC)c1)C2=O,pIC50,[1],6.28
CCCCCCCCCCCCCCCCCC(=O)c1n[nH]c2c1C(=O)N(c1ccc(Cl)cc1)C2=O,pIC50,[1],6.77
CCCCCCCCCCCCCCCCCC(=O)c1cc(C(=O)Nc2ccsc2C(=O)O)[nH]n1,pIC50,[2],4.91
same,pIC50,[1],6.92
same,pIC50,[3],6.39
same,pIC50,[4],5.94
same,IC50,[5],Not Active
same,pIC50,[6],5.01
CCCCCCCCCCCCCCCCCC(=O)c1n[nH]c2c1C(=O)N(c1cccc(Cl)c1)C2=O,pIC50,[1],6.62
